Assay results published in patent US20100240580A1, “AZOLOARINE DERIVATIVES, METHOD FOR THE PRODUCTION THEREOF, PHARMACEUTICALS CONTAINING THESE COMPOUNDS AND THE USE THEREOF” (SANOFI-AVENTIS, priority 2007, published 2010).

Target: T1, SCD1 (Rattus norvegicus, UniProt P07308)
T1 construct: The resuspended microsome fraction was stored at −80° C; from tissue; host or cells: liver microsomes of male Wistar rats fed a carbohydrate-rich, low-fat diet
T1 sequence (P07308 1-358): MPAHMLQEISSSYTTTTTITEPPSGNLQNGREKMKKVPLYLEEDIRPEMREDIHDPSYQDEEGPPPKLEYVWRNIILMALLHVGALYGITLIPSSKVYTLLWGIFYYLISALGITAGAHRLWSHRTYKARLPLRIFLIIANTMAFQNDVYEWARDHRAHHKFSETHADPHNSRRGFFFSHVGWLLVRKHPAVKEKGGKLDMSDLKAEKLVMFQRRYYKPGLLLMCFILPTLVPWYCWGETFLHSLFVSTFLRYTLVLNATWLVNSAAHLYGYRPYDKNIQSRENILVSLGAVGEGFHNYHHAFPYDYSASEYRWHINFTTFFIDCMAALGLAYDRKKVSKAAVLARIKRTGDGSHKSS
Test: stearoyl-CoA desaturase (SCD1) activity, thin-layer chromatography assay with rat liver microsomes
Format: biochemical
Settings: compound at 10 μM, [1-14C]-stearic acid, 37° C., 1 h
Procedure: The activity of the compounds of the invention of the formula I was investigated in the following assay system with microsomal enzymes:
The livers of male Wistar rats which (to induce SCD1 expression) have been fed with a carbohydrate-rich, low-fat diet were homogenized with a Potter tissue homogenizer and differential centrifugation in a buffer which contained 250 mM sucrose and 5 mM HEPES (pH 7.0). The resuspended microsome fraction was stored at −80° C. The stearoyl-CoA desaturase activity was determined in a thin-layer chromatography assay with […] stearic acid. Stated briefly, the respective compounds of the invention (in DMSO in a final concentration of 1% [v/v]) were incubated with 15 μg of the rat liver microsomes in 200 μl of assay buffer (6 mM MgCl2, 250 mM sucrose, 150 mM KCl, 40 mM NaF, 100 mM Na2HPO4 (pH 7.4), 1.3 mM ATP, 1.5 mM reduced glutathione, 60 μM CoA, 0.33 mM nicotinamide and 0.94 mM NADH) at room temperature for 10 min. 0.5 μCi of [1-^14C]-stearic acid (55 mCi/mmol) was added, and the mixture was incubated at 37° C. for 1 h. The radiolabeled fatty acids were then hydrolyzed with 2.5 M KOH/MeOH:H2O (4:1) at 65° C. for 4 h, protonated with 280 μl of formic acid and extracted with 500 μl of hexane. The TLC plates were immersed in 10% AgNO3 and heat-activated before use. 150 μl of the hexane phase were put on the plates, and the TLC plates were developed in buffer (chloroform:methanol:acetic acid:water [90:8:1:0.8]) and dried. The plates were read in a PhosphoImager to quantify the SCD1 activity.
The skilled person is able to modify this assay to determine the inhibition of stearoyl-CoA desaturase activity in various respects.

Row | SMILES | % Inhibition (10 μM)
1 | O=C(NCc1ccc(Cl)s1)c1ccc2nc(-c3ccc(C(=O)c4ccccc4C(F)(F)F)cc3)[nH]c2c1 [Example 27, 2-[4-(2-Trifluoromethylbenzoyl)phenyl]-3H-benzimidazole-5-(5-chlorothiophen-2-ylmethyl)-carboxamide] | 100%
2 | O=C(NCCC1CC1)c1ccc2nc(-c3ccc(Oc4ccccc4C(F)(F)F)cc3)[nH]c2c1 [Example 23, 2-[4-(2-Trifluoromethylphenoxy)phenyl]-3H-benzimidazole-5-(2-cyclopropylethyl)-carboxamide] | 96%
3 | O=C(NCc1nccs1)c1ccc2nc(-c3ccc(Oc4ccccc4C(F)(F)F)cc3)[nH]c2c1 [Example 25, 2-[4-(2-Trifluoromethylphenoxy)phenyl]-3H-benzimidazole-5-(thiazol-2-ylmethyl)carboxamide] | 100%
4 | O=C(NCc1cccs1)c1ccc2nc(-c3ccc(C(=O)c4ccccc4C(F)(F)F)cc3)[nH]c2c1 [Example 19, 2-[4-(2-Trifluoromethylbenzoyl)phenyl]-3H-benzimidazole-5-(thiophen-2-ylmethyl)-carboxamide] | 100%
5 | CC(C)CCNC(=O)c1ccc2nc(-c3ccc(Oc4ccccc4Cl)cc3)[nH]c2c1 [Example 13, 2-[4-(2-Chlorophenoxy)phenyl]-3H-benzoimidazole-5-(3-methylbutyl)carboxamide] | 58%
6 | O=C(NCc1nccs1)c1ccc2nc(-c3ccc(Oc4ccccc4Cl)cc3)[nH]c2c1 [Example 16, 2-[4-(2-Chlorophenoxy)phenyl]-3H-benzoimidazole-5-(thiazol-2-ylmethyl)carboxamide] | 86%
7 | O=C(NCc1ccc(Cl)s1)c1ccc2nc(-c3ccc(Oc4ccccc4Cl)cc3)[nH]c2c1 [Example 15, 2-[4-(2-Chlorophenoxy)phenyl]-3H-benzoimidazole-5-(5-chlorothiophen-2-yl-methyl)carboxamide] | 95%
8 | CC(C)CCNC(=O)c1ccc2nc(-c3ccc(Oc4ccccc4C(F)(F)F)cc3)[nH]c2c1 [Example 24, 2-[4-(2-Trifluoromethylphenoxy)phenyl]-3H-benzimidazole-5-(3-methylbutyl)carboxamide] | 77%
9 | CC(C)CNC(=O)c1ccc2nc(-c3ccc(C(=O)c4ccccc4C(F)(F)F)cc3)[nH]c2c1 [Example 20, 2-[4-(2-Trifluoromethylbenzoyl)phenyl]-3H-benzoimidazole-5-isobutylcarboxamide] | 77%
10 | O=C(NCCC1CC1)c1ccc2nc(-c3ccc(Oc4ccccc4Cl)cc3)[nH]c2c1 [Example 14, 2-[4-(2-Chlorophenoxy)phenyl]-3H-benzoimidazole-5-(2-cyclopropylethyl)carboxamide] | 80%
11 | O=C(NCc1nccs1)c1ccc2[nH]c(-c3ccc(C(=O)c4ccccc4C(F)(F)F)cc3)nc2c1 [Example 28, 2-[4-(2-Trifluoromethylbenzoyl)phenyl]-1H-benzimidazole-5-(thiazol-2-ylmethyl)-carboxamide] | 100%
12 | O=C(NCc1ccc(Cl)s1)c1ccc2nc(-c3ccc(Oc4ccccc4)cc3)[nH]c2c1 [Example 8, 2-(4-Phenoxyphenyl)-3H-benzimidazole-5-(5-chlorothiophen-2-ylmethyl)carboxamide] | 37%
13 | O=C(NCc1nccs1)c1ccc2nc(-c3ccc(Oc4ccccc4)cc3)[nH]c2c1 [Example 9, 2-(4-Phenoxyphenyl)-3H-benzimidazole-5-(thiazol-2-ylmethyl)carboxamide] | 29%
